Strand notation (5' to 3'): a small letter for the sugar, then the base; units joined by * are phosphorothioate-linked, units joined directly phosphodiester-linked; [ ] holds rarer units or linkages, { } end groups; capitals alone tell only the bases. e = 2'-O-(2-methoxyethyl) (MOE); [5mC] = 5-methylcytosine; d = 2'-deoxy (DNA)
Test system: human SMAD7 mRNA
Test: Antisense inhibition of human SMAD7 mRNA expression in Hep3B cells by 5-10-5 MOE gapmers, single concentration, electroporation, RT-PCR (Example 1, Study 1 and 2)
Assay type: cell-based
Conditions: Study 2, electroporation with 15,000 nM antisense oligonucleotide, 5-10-5 MOE gapmers targeting SEQ ID NO: 1 and 2
Method in brief: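 Hep3B cells (20,000/well) electroporated with 5-10-5 MOE gapmer at 5,000 nM or 15,000 nM for approximately 24 h. SMAD7 mRNA quantified by real-time PCR with primer probe set RTS5062 and normalized to RIBOGREEN total RNA. Values are percent inhibition relative to untreated controls.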

| Substance | % Inhibition [%] |
| --- | --- |
| 771883 (antisense eA*eG*e[5mC]*eT*eG*dG*d[5mC]*dA*d[5mC]*dT*dG*dA*dA*dT*dG*e[5mC]*eT*eG*eA*eT) [compound 771883] | 26 |
| 771884 (antisense e[5mC]*eT*eG*e[5mC]*e[5mC]*dA*d[5mC]*d[5mC]*d[5mC]*dT*dG*dA*dG*dA*dG*eT*eG*eT*eA*eG) [compound 771884] | 3 |
| 771886 (antisense eA*eA*e[5mC]*e[5mC]*eA*dG*dG*dT*dT*d[5mC]*d[5mC]*d[5mC]*dA*d[5mC]*dT*eG*eT*eT*eA*e[5mC]) [compound 771886] | 0 |
| 771887 (antisense e[5mC]*eA*eG*e[5mC]*e[5mC]*dA*d[5mC]*dT*dG*d[5mC]*dT*dG*dT*d[5mC]*dT*eG*eA*eG*eG*eA) [compound 771887] | 14 |
| 771892 (antisense e[5mC]*eT*eG*eA*eA*dG*dT*dT*dT*d[5mC]*dT*d[5mC]*d[5mC]*dT*d[5mC]*e[5mC]*e[5mC]*eA*eT*e[5mC]) [compound 771892] | 2 |
| 771894 (antisense e[5mC]*eA*eA*eA*eA*dG*dG*dG*dA*dA*dA*dG*dG*dA*dG*eG*eT*eT*eT*eG) [compound 771894] | 17 |
| 771895 (antisense eA*eT*eT*eT*eG*d[5mC]*dA*dA*d[5mC]*dA*dA*dT*dA*dA*dA*eA*e[5mC]*eA*eA*eA) [compound 771895] | 0 |
| 771899 (antisense e[5mC]*e[5mC]*eT*eG*eA*dT*dT*dG*dT*d[5mC]*dT*d[5mC]*d[5mC]*dA*d[5mC]*eA*eT*e[5mC]*e[5mC]*e[5mC]) [compound 771899] | 47 |
| 771903 (antisense eT*eG*e[5mC]*e[5mC]*eA*dA*d[5mC]*d[5mC]*d[5mC]*d[5mC]*dA*dG*dA*dG*dG*eT*eG*eA*eG*e[5mC]) [compound 771903] | 20 |
| 771908 (antisense e[5mC]*eA*eA*eA*e[5mC]*dA*dT*d[5mC]*dA*d[5mC]*d[5mC]*dA*d[5mC]*dG*d[5mC]*e[5mC]*eT*e[5mC]*eG*e[5mC]) [compound 771908] | 26 |
| 771910 (antisense eA*eG*eG*e[5mC]*eA*d[5mC]*dG*dG*d[5mC]*d[5mC]*dG*d[5mC]*d[5mC]*dT*d[5mC]*e[5mC]*eT*eG*e[5mC]*eA) [compound 771910] | 4 |
| 771911 (antisense eA*eT*eG*eG*eT*d[5mC]*d[5mC]*dA*dG*d[5mC]*dA*dG*dA*dG*d[5mC]*eA*eG*eA*eA*eG) [compound 771911] | 20 |
| 771916 (antisense e[5mC]*e[5mC]*eT*eT*e[5mC]*dT*dT*dA*dA*dA*dT*dT*dT*dT*dT*eA*eA*eT*eT*eT) [compound 771916] | 0 |
| 771918 (antisense eA*eA*eG*eG*e[5mC]*d[5mC]*dA*d[5mC]*dA*dT*dT*dT*dT*dA*dG*eG*eT*eT*eA*eA) [compound 771918] | 12 |
| 771919 (antisense e[5mC]*eA*eA*eT*eG*dG*d[5mC]*dA*d[5mC]*dA*dG*dG*dG*dT*dG*eA*e[5mC]*e[5mC]*eA*eG) [compound 771919] | 29 |
| 771924 (antisense eT*e[5mC]*eG*e[5mC]*eT*dG*dA*dT*dA*dG*dT*dT*dA*dA*d[5mC]*e[5mC]*eT*e[5mC]*eT*eG) [compound 771924] | 9 |
| 771926 (antisense eA*e[5mC]*eA*eA*eA*dG*dG*dT*d[5mC]*dT*dG*dT*dG*dT*dG*eG*eA*e[5mC]*eG*e[5mC]) [compound 771926] | 13 |
| 771927 (antisense eG*e[5mC]*e[5mC]*e[5mC]*eA*d[5mC]*dA*dG*d[5mC]*d[5mC]*d[5mC]*dA*d[5mC]*dA*d[5mC]*eG*eA*eG*eT*e[5mC]) [compound 771927] | 0 |
| 771932 (antisense e[5mC]*eG*eA*eG*eG*dT*dG*d[5mC]*d[5mC]*d[5mC]*d[5mC]*d[5mC]*dA*dT*dG*e[5mC]*e[5mC]*eA*eG*eG) [compound 771932] | 13 |

Same assay, conditions: electroporation with 15,000 nM antisense oligonucleotide (Study 2), 5-10-5 MOE gapmers targeting SEQ ID NO: 1 and 2

| Substance | % Inhibition of SMAD7 mRNA [%] |
| --- | --- |
| 771888 (antisense eT*e[5mC]*eG*e[5mC]*e[5mC]*dA*dT*dG*dG*dA*dG*dA*dA*dT*dG*eT*eA*eA*eT*eT) [compound 771888] | 21 |
| 771896 (antisense eG*eG*eG*e[5mC]*e[5mC]*d[5mC]*d[5mC]*d[5mC]*dT*dT*d[5mC]*dT*dG*d[5mC]*d[5mC]*eT*eT*e[5mC]*eA*eT) [compound 771896] | 17 |
| 771904 (antisense e[5mC]*e[5mC]*e[5mC]*eA*eA*d[5mC]*d[5mC]*d[5mC]*dA*dT*d[5mC]*dT*d[5mC]*d[5mC]*dA*e[5mC]*e[5mC]*eA*e[5mC]*e[5mC]) [compound 771904] | 0 |
| 771912 (antisense eA*eT*eA*eT*eT*d[5mC]*d[5mC]*dT*d[5mC]*dT*dG*d[5mC]*d[5mC]*dA*dA*eA*eG*eT*e[5mC]*e[5mC]) [compound 771912] | 44 |
| 771920 (antisense eT*eT*eA*eT*eT*dT*dA*dA*dT*dT*dA*d[5mC]*d[5mC]*d[5mC]*dT*eG*e[5mC]*eT*e[5mC]*eA) [compound 771920] | 33 |
| 771928 (antisense e[5mC]*e[5mC]*e[5mC]*e[5mC]*eA*dT*dT*dG*d[5mC]*d[5mC]*dA*d[5mC]*dT*dA*d[5mC]*eA*eG*eA*eG*eA) [compound 771928] | 27 |

Same assay, conditions: electroporation, 5,000 nM, approximately 24 hours, relative to untreated control cells, gapmers targeting SEQ ID NO: 1 and 2

| Substance | % inhibition of SMAD7 mRNA expression [%] |
| --- | --- |
| 771883 (antisense eA*eG*e[5mC]*eT*eG*dG*d[5mC]*dA*d[5mC]*dT*dG*dA*dA*dT*dG*e[5mC]*eT*eG*eA*eT) [compound 771883] | 0 |
| 771899 (antisense e[5mC]*e[5mC]*eT*eG*eA*dT*dT*dG*dT*d[5mC]*dT*d[5mC]*d[5mC]*dA*d[5mC]*eA*eT*e[5mC]*e[5mC]*e[5mC]) [compound 771899] | 57 |

Same assay, conditions: electroporation, 15,000 nM antisense oligonucleotide (Study 2), 5-10-5 MOE gapmers targeting SEQ ID NO: 1 and 2

| Substance | % inhibition of SMAD7 mRNA expression [%] |
| --- | --- |
| 771888 (antisense eT*e[5mC]*eG*e[5mC]*e[5mC]*dA*dT*dG*dG*dA*dG*dA*dA*dT*dG*eT*eA*eA*eT*eT) [compound 771888] | 0 |
| 771889 (antisense eT*eA*eA*eG*eA*dG*d[5mC]*dA*dT*dT*dT*dA*dT*d[5mC]*dT*e[5mC]*eG*e[5mC]*e[5mC]*eA) [compound 771889] | 29 |
| 771890 (antisense eA*eG*eT*e[5mC]*eT*dG*dA*dA*dG*d[5mC]*d[5mC]*d[5mC]*d[5mC]*d[5mC]*dA*eA*e[5mC]*e[5mC]*eT*eG) [compound 771890] | 14 |
| 771896 (antisense eG*eG*eG*e[5mC]*e[5mC]*d[5mC]*d[5mC]*d[5mC]*dT*dT*d[5mC]*dT*dG*d[5mC]*d[5mC]*eT*eT*e[5mC]*eA*eT) [compound 771896] | 0 |
| 771897 (antisense e[5mC]*eT*e[5mC]*eT*e[5mC]*dA*dG*dG*dG*dT*d[5mC]*dT*d[5mC]*dA*dG*eT*eT*eT*eG*eA) [compound 771897] | 44 |
| 771898 (antisense eG*eG*eT*eG*eT*dG*dA*dG*d[5mC]*dT*dG*dT*dG*dG*dA*e[5mC]*eA*e[5mC]*eA*eG) [compound 771898] | 27 |
| 771904 (antisense e[5mC]*e[5mC]*e[5mC]*eA*eA*d[5mC]*d[5mC]*d[5mC]*dA*dT*d[5mC]*dT*d[5mC]*d[5mC]*dA*e[5mC]*e[5mC]*eA*e[5mC]*e[5mC]) [compound 771904] | 0 |
| 771905 (antisense eT*eA*eG*eG*e[5mC]*dG*dA*dA*dT*d[5mC]*d[5mC]*d[5mC]*dT*d[5mC]*d[5mC]*e[5mC]*e[5mC]*e[5mC]*eA*eA) [compound 771905] | 0 |
| 771906 (antisense eA*e[5mC]*e[5mC]*e[5mC]*eT*dT*dG*d[5mC]*dT*dG*dG*dT*d[5mC]*dT*d[5mC]*eT*eT*eG*eT*eT) [compound 771906] | 0 |
| 771912 (antisense eA*eT*eA*eT*eT*d[5mC]*d[5mC]*dT*d[5mC]*dT*dG*d[5mC]*d[5mC]*dA*dA*eA*eG*eT*e[5mC]*e[5mC]) [compound 771912] | 19 |
| 771913 (antisense eA*eA*eA*eA*eA*dA*dG*d[5mC]*d[5mC]*dA*dG*dT*dA*dA*dA*eG*eA*e[5mC]*eA*eT) [compound 771913] | 11 |
| 771914 (antisense eA*eT*eT*eT*eA*dG*dG*dA*dA*d[5mC]*dA*dA*dG*dG*dG*e[5mC]*eA*eA*eG*e[5mC]) [compound 771914] | 34 |
| 771920 (antisense eT*eT*eA*eT*eT*dT*dA*dA*dT*dT*dA*d[5mC]*d[5mC]*d[5mC]*dT*eG*e[5mC]*eT*e[5mC]*eA) [compound 771920] | 13 |
| 771921 (antisense eT*e[5mC]*e[5mC]*eT*e[5mC]*d[5mC]*d[5mC]*dT*dT*dT*dA*dA*dA*dG*dG*eG*eA*eA*eG*eG) [compound 771921] | 14 |
| 771922 (antisense eA*eA*eA*eT*eT*d[5mC]*d[5mC]*dT*dT*dT*dA*dA*dG*dG*dT*eG*eT*eT*eG*e[5mC]) [compound 771922] | 29 |
| 771928 (antisense e[5mC]*e[5mC]*e[5mC]*e[5mC]*eA*dT*dT*dG*d[5mC]*d[5mC]*dA*d[5mC]*dT*dA*d[5mC]*eA*eG*eA*eG*eA) [compound 771928] | 0 |
| 771929 (antisense e[5mC]*eT*eT*eT*e[5mC]*d[5mC]*dA*dG*d[5mC]*dA*dA*dA*dA*d[5mC]*d[5mC]*eA*eT*eT*e[5mC]*eG) [compound 771929] | 0 |
| 771930 (antisense e[5mC]*e[5mC]*eA*eG*e[5mC]*d[5mC]*d[5mC]*dA*dG*dA*dA*dA*dA*dA*d[5mC]*eT*eG*e[5mC]*eA*eA) [compound 771930] | 26 |

Same assay, conditions: electroporation, 15,000 nM, approximately 24 hours, relative to untreated control cells, gapmers targeting SEQ ID NO: 1 and 2

| Substance | % inhibition of SMAD7 mRNA expression [%] |
| --- | --- |
| 771893 (antisense eG*eT*e[5mC]*eA*eT*d[5mC]*d[5mC]*dG*dT*d[5mC]*d[5mC]*dA*d[5mC]*dT*dG*eT*e[5mC]*eT*eG*e[5mC]) [compound 771893] | 35 |
| 771901 (antisense eA*eA*eA*eA*eT*dG*d[5mC]*d[5mC]*d[5mC]*dA*d[5mC]*d[5mC]*dA*dG*dT*e[5mC]*eT*eT*e[5mC]*e[5mC]) [compound 771901] | 41 |
| 771909 (antisense e[5mC]*eA*eG*eG*e[5mC]*dT*d[5mC]*d[5mC]*d[5mC]*dT*dG*dT*dG*d[5mC]*d[5mC]*eA*eA*eT*e[5mC]*eA) [compound 771909] | 52 |
| 771917 (antisense e[5mC]*e[5mC]*eA*eG*eA*d[5mC]*d[5mC]*d[5mC]*d[5mC]*dT*dT*d[5mC]*dT*dT*dA*eA*eA*eT*eT*eT) [compound 771917] | 22 |
| 771925 (antisense eG*eG*e[5mC]*e[5mC]*eT*d[5mC]*dT*d[5mC]*dG*d[5mC]*dT*dG*dA*dT*dA*eG*eT*eT*eA*eA) [compound 771925] | 10 |
| 771933 (antisense eA*eT*e[5mC]*eG*eA*dG*dG*dT*dG*d[5mC]*d[5mC]*d[5mC]*d[5mC]*d[5mC]*dA*eT*eG*e[5mC]*e[5mC]*eA) [compound 771933] | 31 |
